Reference: patent US20240361265A1, “APPARATUS AND METHODS FOR EXTRACELLULAR IMPEDANCE SPECTROSCOPY OF BARRIER CELLS” (Georgia Tech Research Corporation, priority 2023, published 2024)

What was measured:
[1] = tested on: iPSC-RPE (Z8); assay: Extracellular EIS of iPSC-RPE response to apical ATP in perfusion chamber versus Ussing chamber; assay type: cell-based, human
Description: EIS measurements were performed with an Autolab PGSTAT204 with a FRA32M […] (Utrecht, Netherlands). The device was controlled with the provided NOVA 2.1.5 software to perform frequency sweeps from 0.1 Hz to 10 kHz. The NOVA software was used to send up to 5 simultaneous frequencies spaced to approximately 5 unique measurements per decade. The PGSTAT working electrode was connected to the working electrode and counter electrode; the sense and reference electrodes were connected to the basal and apical baths through the Ringer-based agar bridges (connected to Ag|AgClreference electrodes in a saturated KCl bath), respectively.
Chamber design and extracellular epithelial properties: A custom device was assembled to rapidly and noninvasively evaluate the evoked responses and recovery of RPE to extracellular ATP (FIG. 4.3).
The “perfusion” chamber in FIG. 8A was created using the same Acrylic material as the Ussing chamber but was designed to interface with an intact, 12-well Transwell insert (Corning costar 3460). Ag|AgCl wires were used as the working and counter electrodes. These electrodes were shaped into a symmetric ring of maximum diameter that fits inside the chamber and placed as far from the epithelia as possible to maximize uniformity of the current flux across the tissue. The sense and reference electrodes (used to measure TEP) were single-junction KCl reference electrodes. The KCl reference electrode was constructed with an Ag|AgCl wire that was inserted in a glass body (1.5 mm outer diameter) and backfilled with 3 M KCl. The terminus of these electrodes was made of a Vycor frit that enabled electrical contact between the 3 M KCl solution and the perfusate. Ag|AgCl electrodes were selected due to their rapid and reversible redox reactions, and the bridges were designed to minimize the effect of drifting Cl− ion concentrations on the electrode junction potential. The sense and reference electrodes were inserted through the cylinders extruding through the top of the device such that they were positioned as close as possible to the tissue. The design of the Acrylic cylinders included a kinematic constraint for the electrodes to ensure that the distance between the tissue and voltage-sensing probes was consistent across all experiments.
For example, the magnitudes of extracellular tissue properties in normal Ringer's solution should be compared.
Furthermore, to ensure that the perfusion device can maintain the health and function of epithelia during long experiments, a simple experiment was devised to last at least 45 min; sufficient for rigorous RPE experiments performed in literature ([39′], [7′]). During this experiment the tissues were briefly exposed (approximately 10 min) to 100 μM ATP at the apical membrane. […]

[2] = tested on: iPSC-derived RPE; assay: Combined intracellular pipette and EIS (3P-EIS) recording of iPSC-RPE response to apical ATP in modified Ussing chamber; assay type: cell-based, human; settings: for membrane-specific capacitance changes: apical ATP stimulation
Description: Human iPSC-RPE cells. The study performed the protocol for induced pluripotent stem cell (iPSC) differentiation described in [29]. Briefly, for each individual iPSC line, somatic cells (blood or fibroblasts) were isolated from a single donor and were reprogrammed using the Sendai virus or episomal reprograming methods. Reprogramed iPSC colonies were differentiated into RPE using the protocol described by Sharma et al.. iPSC-derived RPE cells were seeded onto Corning 3406 Transwells, with a seeding density of 300,000 cells/cm^2 and 250,000 cells/cm^2 and were measured at approximately 300 days old. Fully-mature RPE cells were characterized with a transmission electron microscope (TEM) for morphology, gene expression, and immunostaining for RPE-specific markers. For iPSC genotype, TaqMan genotyping assays (ThermoFisher) were used. The following probes were tested: rs1061170 (Assay ID: AHI1TPW; 4331349); rs2230199 (Assay ID: C_26330755_10; 4351379). SNP rs10490924 (Assay ID: C_29934973_20; 4351379). Two human donors were used to derive iPSC-RPE for this experiment. Samples 1 and 2 were derived from donor A, and sample 3 was derived from donor B.
Tissue mounting and maintenance. The study performed the method for mounting the tissue into the modified Ussing chamber for electrophysiology described in [32]. Briefly, a 7 mm diameter, circular section of the iPSC-RPE Transwell was punched out, mounted, and sealed into the chamber, apical side up. Electrical current leak, due to poor sealing between the Ussing chamber and the Transwell punch-out, was minimized by placing a nylon mesh insert beneath the sample so that the iPSC-RPE made contact around the entire circumference of the chamber. The total exposed tissue cross-section was approximately 0.11 cm^2. Experimental solutions were perfused across both sides of the tissue for the entire duration of the experiment.
Electrophysiological solution. The standard, control solution was the same modified Ringer's solution as has been described previously. In brief, the solution contains (in mM): 5 KCl, 116.5 NaCl, 23 NaHCO3, 0.5 MgCl2, 1.8 CaCl2, 2 taurine, 5 glucose, and 10 sucrose. All salts (except for CaCl2) were mixed into de-ionized water at room temperature (20 C). The solution was bubbled for approximately 5 minutes with 95% CO2 before the addition of CaCl2. […] During an experiment, the solution was continuously bubbled with a custom gas mixture (5% CO2, 10% 02, and 85% N2) to maintain the Ringer's solution to a pH near 7.4±0.1.
Measurement Setup and Electrode Configuration. To measure the apical and basolateral bath voltages, Ringer-filled 3.5% agar bridges were connected to saturated KCl baths with submerged, double-junction AgCl reference electrodes (Fisher Scientific, Accumet, cat. No. 13-620-855). AgCl-coated Ag wires (0.01″ diameter) were submerged directly into the apical and basolateral baths to apply current across the tissues during galvanostatic measurements. The Ussing chamber was rotated approximately 30 degrees from horizontal during each experiment to simultaneously enable equal fluidic pressures across the epithelia while simultaneously allowing for apical bath access for intracellular pipettes.
The study performed the protocol for inserting a pipette into the cell's cytoplasm (FIG. 5C, node 3) for intracellular recordings described in [32]. Briefly, a LabVIEW-based controller was used to insert a pipette—backfilled with 150 mM NaCl—into the cytoplasm of a single cell using an N-565.260 piezoelectric motor connected to an E-861.1A1 single-axis controller box (Physik Instrumente). The pipette voltage was amplified using a Multiclamp 700B (Molecular Devices) amplifier, and the trans-epithelial potential (TEP) signal was amplified using a VCC 600 (Physiologic Instruments). The primary output of the Multiclamp 700B had the settings: 10 mV/mV in “Membrane Potential” mode with “gain” set to 1, and the Bessel filter was set to 30 kHz. […]

Nc1ncnc2c1ncn2[C@@H]1O[C@H](COP(=O)(O)OP(=O)(O)OP(=O)(O)O)[C@@H](O)[C@H]1O [ATP, adenosine triphosphate]
tissue capacitance (Ct) average decrease ([1]; 100 μM apical ATP, about 10 min, Ussing chamber): 3%
tissue capacitance (Ct) average increase ([1]; 100 μM apical ATP, about 10 min, perfusion chamber): 11%
time to return to within 95% of baseline after ATP ([1]; both perfusion and Ussing chambers): ≤ 40 min
extracellular time constant ratio response ([1]; during ATP exposure, samples 1, 2 and 3, Ussing chamber): increased in magnitude
apical membrane resistance decrease ([2]; 100 μM apical ATP exposure, sample 1): 62%
apical membrane resistance increase ([2]; 100 μM apical ATP exposure, sample 2): 89%
apical membrane resistance increase ([2]; 100 μM apical ATP exposure, sample 3): 139%
membrane-specific capacitance changes ([2]; Sample 1): did not display ATP650-induced changes
membrane-specific capacitance changes ([2]; Samples 2 and 3): concurrent reductions in apical capacitance and elevations in basolateral capacitance
depolarization of the apical membrane (Va) ([2]; by the end of the ATP exposure, all three samples): approximately 20 mV
change in apical capacitance Ca ([2]; during ATP administration): 12%
change in basolateral capacitance Cb ([2]; during ATP administration): −6%
TER response ([2]; during ATP exposure, 3P-Classical or exemplary method): decrease in TER
basolateral resistance (Rb) response ([2]; during ATP exposure, Sample 3): expected reduction
shunt resistance (Rs) response ([2]; during ATP exposure, all samples): rapid and substantial decrease
depolarization of the apical membrane (Va) ([2]; first phase of the ATP-induced response, Sample 3): 10 mV
depolarization of the apical membrane (Va) ([2]; first phase of the ATP-induced response, Samples 1 and 2): 20 mV
TEP response ([2]; remainder of the ATP exposure, all three samples): increase in TEP
